Source: patent US20110281950A1, “COMPOSITIONS AND METHODS FOR REDUCING PROLIFERATION AND VIABILITY OF LYMPHOBLASTOID CELLS” (priority 2010, published 2011)
Where two headings read alike, the source gives them in different places.

Assays:
Assay type in all cases: cell-based
[1] = system: Activated EBV-specific T cells; experiment: T cell IFNγ and GzB ELISPOT (Example 4); conditions: 4 days; for T cell IFNγ secretion, ELISPOT: untreated control 98 spots; for T cell GzB secretion, ELISPOT: untreated control 107 spots
Procedure: The production of proteins associated with the T cell cytotoxic response (interferon-γ, granzyme B) was determined in vitro. Activated EBV-specific T cells were initially treated for 4 days (T) with 100 nM or 500 nM AR-42 and further stimulated with EBV+ LCLs (effector-target ratio: 1:1) in an ELISPOT assay to determine IFNγ and GzB secretion potentials. Release of interferon-gamma (IFNγ) or granzyme B (GzB) was visualized using monoclonal IFNγ/GzB antibodies with BCIP/NBT substrate solution. Results were quantified by an enzyme-linked immunosorbent spot assay (ELISPOT) analyzer.

[2] = system: Activated EBV-specific T cells; experiment: T cell ELISPOT with and without AR-42 washout (Example 6); conditions: long-term exposure, 500 nM
Procedure: Activated EBV-specific T cells expanded in the presence of AR-42 were further incubated in media with and without AR-42. After 5 days, the T cells were stimulated with EBV+ LCLs in an ELISPOT assay to determine IFNγ and GzB secretion potentials.

Purified NK cells [3] = experiment: NK cell IFNγ and GzB ELISPOT (Example 5); conditions: for NK cell GzB, ELISPOT: untreated control 91 spots; for NK cell IFNγ, ELISPOT: untreated control 314 spots
Procedure: Purified NK cells were initially treated overnight (NK) with 100 nM, 250 nM or 500 nM AR-42. The NK cells were further stimulated using inflammatory cytokines cytokines IL-2 (50 pM) and IL-12 (10 ng/ml) in an ELISPOT assay to determine IFNγ and GzB secretion potentials. Results were quantified by an ELISPOT analyzer.

Purified NK cells [4] = experiment: NK cell 51Cr release cytotoxicity assay, continuous treatment or washout (Example 7); conditions: control 64%
Excerpt: (§1) Purified NK cells in DMSO were used as a control. The cells were subsequently analyzed in an IFNγ ELISPOT assay or a ^51Cr release cytotoxicity assay.

[5] = system: peripheral blood mononuclear cells (PBMCs); experiment: PBMC viability, PI staining and flow cytometry (Example 9); conditions: 100, 250, 500, 1000 nM, 2 and 4 days
Procedure: The effect of AR-42 on the viability of peripheral blood mononuclear cells (PBMCs) was determined. PBMCs were isolated from three random donor leukopaks and incubated with AR-42 (100 nM, 250 nM, 500 nM, 1000 nM) for 2 and 4 days. Viability was assessed by PI staining using flow cytometry. All results were normalized relative to untreated DMSO controls. […] The standard deviations in FIG. 15 represent the mean of the three leukopaks.

purified CD56+ NK cells = experiment: Cell surface protein expression on NK cells, flow cytometry (Example 8); conditions: 24 hours; for expression of activating NK cell receptor NKG2D: AR-42 100, 500 nM, SAHA 100, 1000 nM
Excerpt: The mechanism by which HDAC inhibition affects NK cell-driven ADCC was investigated in vitro. […] Viable cells were then collected and stained with monoclonal antibodies specific for cell surface proteins with known stimulatory (NKG2D, FcγRIII) or inhibitory (KIR) activity. Protein expression was then quantified via flow cytometry.

[6] = system: EBV-specific CD8+ T-cells; experiment: EBV-specific T-cell expansion, RAK tetramer (Example 2A); conditions: 100, 250, 500 nM, two weeks co-culture with irradiated LCLs
Procedure: The effect of AR-42 on EBV-specific T-cell expansion was determined. Irradiated LCLs were added to purified PBMCs and maintained in co-culture for two weeks with AR-42 (100 nM, 250 nM, 500 nM). After two weeks, the EBV-specific T-cell expansion was measured using the RAK tetramer. This tetramer contains the […] peptide which binds the HLA-B8 MHC type I epitope, and can be used to identify EBV-specific (BZLF1 specific) CD8+ T-cells.

LCLs (C7M3, DC9) = experiment: Viability and proliferation of lymphoblastoid cell lines (Example 1A); conditions: 100, 250, 500, 750 and 1000 nM
Procedure: The effects of AR-42 on the viability and proliferation of lymphoblastoid cell lines was determined. […] Cell viability was analyzed by annexin/PI staining and flow cytometry. Cell counts were measured at day 5. The results are seen in FIGS. 14A and 14B. In FIGS. 14A and 14B, the standard deviation represents the results from triplicate experiments.

[7] = system: EBV-specific cytotoxic T cell (CTL) cytotoxicity against autologous EBV+ LCLs; experiment: EBV-specific CTL cytotoxicity, four hour 51Cr release assay (Example 2)
Procedure: (§2) The effects of AR-42 on EBV-specific cytotoxic T cell (CTL) cytotoxicity were assessed in vitro. Peripheral blood mononuclear cells (PBMC) and autologous EBV+ LCL were co-culturing in media containing IL-2 (50 μM) and either DSMO (control) or AR-42 (100 nM). EBV-specific CTLs were identified with anti-CD8 mAb and HLAB8-RAK tetramer, upon a 12 day expansion, the results of which are shown in FIG. 10. […] At day 13, the EBV-specific CTLs were incubated overnight in 100, 250, & 500 nM AR-42+IL-2 (50 μM). The next day, a four hour ^51Cr release assay was performed on each incubated sample in order to access the effects of AR-42 on EBV-specific cytotoxic T cell (CTL) cytotoxicity. This is shown schematically in FIG. 2, which illustrates autologous target EBV+ LCLs are labeled with ^51Cr, which is actively internalized by each cell via pumps in its membrane; effector CTLs are counted and plated at desired effector-target ratios; labeled targets are incubated with effectors for four hours; and lysed targets release intracellular ^51Cr into the supernatant, which is harvested and analyzed for radioactivity using a gamma counter. Effector-target ratios of 50:1, 25:1, and 12.5:1 were used.

[8] = system: NK cell-driven antibody dependent cellular cytotoxicity (ADCC) against target B cells; experiment: NK cell-driven ADCC, four hour 51Cr release assay (Example 3)
Procedure: as §2
The effects of AR-42 on NK cell-driven antibody dependent cellular cytotoxicity (ADCC) were assessed in vitro. NK cells were treated overnight with AR-42 (100 nM, 250 nM, 500 nM) or Rituximab (anti-CD20) or Herceptin (anti-erbB2). Rituximab (anti-CD20) was the antibody of choice for the assay because of its wide clinical use and proven efficacy against B cell lymphomas that express CD20 antigen. Herceptin (anti-erbB2), a commonly used breast cancer drug, was used as a negative control. The effect of AR-42 on NK cell-driven antibody dependent cellular cytotoxicity (ADCC) was assessed using a four hour ^51Cr release assay. The four hour ^51Cr release assay was performed as described with respect to Example 2A, except that effector-target ratios of 25:1, 12.5:1, & 6.25:1 were used.

EBV+ LCLs = experiment: Cell surface protein expression on EBV+ LCLs, flow cytometry (Example 8)
[9] = system: EBV+ transformed B lymphoblastoid cell lines (EBV+ LCL); experiment: Viability of EBV+ LCL cultured with HDAC inhibitors, annexin/PI staining and flow cytometry (Example 1)
Procedure: Cell viability was then analyzed every 24 hours by annexin/PI staining and flow cytometry.

Purified NK cells [10] = experiment: NK cell IFNγ ELISPOT, continuous treatment or washout (Example 7); conditions: control 569 spots
Excerpt: as §1

## CC(C)C(C(=O)Nc1ccc(C(=O)NO)cc1)c1ccccc1 (stereo not drawn) [AR-42, N-hydroxy-4-(3-methyl-2-phenyl-butyrylamino)-benzamide]
[1]; 100 nM
  T cell IFNγ secretion, ELISPOT: 47 spots
  T cell GzB secretion, ELISPOT: 99 spots
[1]; 500 nM
  T cell IFNγ secretion, ELISPOT: 3 spots
  T cell GzB secretion, ELISPOT: 5 spots
[2]
  cytotoxic function of activated T cells: eventual loss of cytotoxic function
Purified NK cells [3]; 100 nM overnight
  NK cell GzB, ELISPOT: 22 spots
  NK cell IFNγ, ELISPOT: 63 spots
Purified NK cells [3]; 250 nM overnight
  NK cell GzB, ELISPOT: 7 spots
  NK cell IFNγ, ELISPOT: 10 spots
Purified NK cells [3]; 500 nM overnight
  NK cell GzB, ELISPOT: 10 spots
  NK cell IFNγ, ELISPOT: 1 spots
Purified NK cells [4]; 100 nM treated, max E:T ratio
  NK cytotoxic activity: 36%
Purified NK cells [4]; 100 nM, washout
  NK cytotoxic activity: 41%
Purified NK cells [4]; 250 nM treated, max E:T ratio
  NK cytotoxic activity: 23%
Purified NK cells [4]; 250 nM, washout
  NK cytotoxic activity: 36%
Purified NK cells [4]; 500 nM treated, max E:T ratio
  NK cytotoxic activity: 1%
Purified NK cells [4]; 500 nM, washout
  NK cytotoxic activity: 42%
[5]
  viability of PBMCs: decreases the viability of PBMCs in a dose dependent manner
Purified CD56+ NK cells; especially at 500 nM
  expression of inhibitory receptor KIR on NK cells: down modulates
Purified CD56+ NK cells
  expression of activating NK cell receptor NKG2D: down modulate
[6]
  EBV-specific T-cell expansion: decreases EBV-specific T-cell expansion in a dose dependent manner
LCLs (C7M3, DC9)
  antiproliferative activity in EBV+ LCL cell lines: antiproliferative activity in EBV+ LCL cell lines in a dose dependent manner
[7]; 100 nM overnight, highest effector-target ratio (50:1)
  CTL cytotoxicity: 19%
[7]; 250 nM overnight, highest effector-target ratio (50:1)
  CTL cytotoxicity: 12%
[7]; 500 nM overnight
  CTL cytotoxicity: −2%
[8]; 100 nM overnight, highest effector-target ratio (25:1)
  NK cytotoxicity (ADCC) in combination with rituximab: 36%
[8]; 250 nM overnight, highest effector-target ratio (25:1)
  NK cytotoxicity (ADCC) in combination with rituximab: 23%
[8]; 500 nM overnight
  NK cytotoxicity (ADCC) in combination with rituximab: 1.1%
EBV+ LCLs; 500 nM and 1000 nM, 24 and 48 hours
  Mic A/B (NKG2D ligand) expression on EBV+ LCLs: unaffected
EBV+ LCLs; higher concentrations (500 nM and 1000 nM, 24 and 48 hours)
  MHC Class I expression (KIR ligand) on EBV+ LCLs: down modulates
[9]
  concentration that inhibits EBV+ LCL growth: ≥ 250 nM
[9]; 750 and 1000 nM
  viability at day 4 compared with day 2: higher viability by day 4
[9]; Lymphoblastoid cell, 48 h, 250 nM, day 2, read-out: viability of B cell population
  viability at 0.25 µM: 87%
[9]; Lymphoblastoid cell, 48 h, 500 nM, day 2, read-out: viability of B cell population
  viability at 0.5 µM: 75%
[9]; Lymphoblastoid cell, 48 h, 750 nM, day 2, read-out: viability of B cell population
  viability at 0.75 µM: 62%
[9]; Lymphoblastoid cell, 48 h, 1000 nM, day 2, read-out: viability of B cell population
  viability at 1 µM: 54%
Purified NK cells [10]; AR-42 100 nM treated
  NK cell IFNγ secretion, ELISPOT: 207 spots
Purified NK cells [10]; AR-42 100 nM, 24 hour treatment+24 hour washout
  NK cell IFNγ secretion, ELISPOT: 418 spots
Purified NK cells [10]; AR-42 250 nM treated
  NK cell IFNγ secretion, ELISPOT: 10 spots
Purified NK cells [10]; AR-42 250 nM, 24 hour treatment+24 hour washout
  NK cell IFNγ secretion, ELISPOT: 235 spots
Purified NK cells [10]; AR-42 500 nM treated
  NK cell IFNγ secretion, ELISPOT: 6 spots
Purified NK cells [10]; AR-42 500 nM, 24 hour treatment+24 hour washout
  NK cell IFNγ secretion, ELISPOT: 96 spots

## O=C(CCCCCCC(=O)Nc1ccccc1)NO [SAHA, suberoylanilide hydroxamic acid, reference compound]
Purified CD56+ NK cells
  expression of activating NK cell receptor NKG2D: down modulate
[9]; 250-2000 nM, 4 day incubation
  B cell death: little cell death
[9]; Lymphoblastoid cell, 96 h, 4000 nM, day 4, read-out: viability of B cell population
  viability at 4 µM: 69%
Purified NK cells [10]; SAHA 100 nM treated
  NK cell IFNγ secretion, ELISPOT: 452 spots
Purified NK cells [10]; SAHA 500 nM treated
  NK cell IFNγ secretion, ELISPOT: 366 spots
Purified NK cells [10]; SAHA 1000 nM treated
  NK cell IFNγ secretion, ELISPOT: 166 spots

## CCCC(CCC)C(=O)O [valproate, reference compound]
[9]; Lymphoblastoid cell, 72 h, 2.0 mM, day 3, read-out: viability of B cell population
  viability at 2000 µM: 83%
[9]; Lymphoblastoid cell, 72 h, 3 mM, day 3, read-out: viability of B cell population
  viability at 3000 µM: 73%
[9]; Lymphoblastoid cell, 72 h, 4.0 mM, day 3, read-out: viability of B cell population
  viability at 4000 µM: 63%
[9]; Lymphoblastoid cell, 96 h, 4 mM, day 4, read-out: viability of B cell population
  viability at 4000 µM: 71%
Purified NK cells [10]; valproate 1 mM
  NK cell IFNγ secretion, ELISPOT: 446 spots
Purified NK cells [10]; valproate 2 mM
  NK cell IFNγ secretion, ELISPOT: 238 spots

## rituximab: anti-CD20 antibody used for the ADCC assay
[8]; NK cells not treated with AR-42, effector-target ratio 6.25:1
  relative ADCC: 52%
[8]; NK cells not treated with AR-42, effector-target ratio 12.5:1
  relative ADCC: 56%
[8]; NK cells not treated with AR-42, effector-target ratio 25:1
  relative ADCC: 64%
